Laboratory results reported in paper PMC8637366 (Slas Discovery, 2021).
Where a name gives a salt, the structure may show the parent alone. Read-outs that look alike come from different tables or passages of the source.

How the values were obtained:
[1] = target: T1, Recombinant human BChE (Homo sapiens, UniProt P06276); test: biochemical; conditions: for Emax: read-out: BChE, % Efficacy
[2] = target: recombinant human AChE (Homo sapiens, UniProt P22303); test: biochemical; format: biochemical; conditions: for Emax: read-out: AChE, % Efficacy
[3] = target: T1, Recombinant human BChE; format: biochemical

T1 sequence (P06276 29-602): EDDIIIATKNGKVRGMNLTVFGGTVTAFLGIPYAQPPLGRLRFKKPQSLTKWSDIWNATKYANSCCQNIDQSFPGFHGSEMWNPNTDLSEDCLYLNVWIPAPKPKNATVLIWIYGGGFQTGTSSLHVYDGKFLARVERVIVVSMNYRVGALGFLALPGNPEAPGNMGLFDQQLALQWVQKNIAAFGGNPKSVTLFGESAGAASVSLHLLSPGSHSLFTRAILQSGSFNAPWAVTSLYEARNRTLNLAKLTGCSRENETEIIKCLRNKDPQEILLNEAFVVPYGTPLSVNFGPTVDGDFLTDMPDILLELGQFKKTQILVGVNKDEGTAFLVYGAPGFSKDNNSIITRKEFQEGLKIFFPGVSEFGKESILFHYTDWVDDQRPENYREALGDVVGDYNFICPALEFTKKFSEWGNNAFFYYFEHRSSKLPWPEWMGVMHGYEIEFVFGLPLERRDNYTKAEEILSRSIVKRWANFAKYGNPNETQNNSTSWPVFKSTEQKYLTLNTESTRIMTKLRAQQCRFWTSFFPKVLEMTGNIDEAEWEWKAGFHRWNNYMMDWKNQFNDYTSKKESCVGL
recombinant human AChE, sequence (P22303 32-614): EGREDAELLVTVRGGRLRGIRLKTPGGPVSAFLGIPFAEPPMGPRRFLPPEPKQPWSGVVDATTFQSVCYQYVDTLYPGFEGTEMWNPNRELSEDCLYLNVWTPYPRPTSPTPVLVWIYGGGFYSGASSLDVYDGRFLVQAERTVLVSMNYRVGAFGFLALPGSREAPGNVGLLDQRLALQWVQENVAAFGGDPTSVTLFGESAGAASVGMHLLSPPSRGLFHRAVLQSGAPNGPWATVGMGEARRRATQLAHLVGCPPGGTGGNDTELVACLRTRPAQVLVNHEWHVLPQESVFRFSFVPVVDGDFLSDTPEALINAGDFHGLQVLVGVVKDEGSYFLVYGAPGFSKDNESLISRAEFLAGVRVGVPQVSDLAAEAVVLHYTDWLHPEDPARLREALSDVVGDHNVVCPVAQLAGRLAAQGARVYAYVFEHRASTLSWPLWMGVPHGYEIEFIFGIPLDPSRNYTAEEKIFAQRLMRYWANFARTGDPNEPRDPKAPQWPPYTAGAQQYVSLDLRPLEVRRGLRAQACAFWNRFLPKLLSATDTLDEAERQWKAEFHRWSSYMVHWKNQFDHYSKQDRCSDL

Row | Molecule | AChE, IC50 [2] | IC50 ([1]; BChE, IC50) | Emax [1] | further results
1 | COc1cc(O)ccc1OCCNCC(O)COc1cccc2[nH]c3ccccc3c12 (stereo not shown) [4-hydroxyphenyl carvedilol] | Inactive | – | – | BChE, % Efficacy [1]: 0.97 ± 0.11 (–100 ± 2.04) %; IC50 ([1]; read-out: BChE, IC50): 970 nM
2 | Nc1c2ccccc2nc2ccccc12 [9-Aminoacridine monohydrochloride monohydrate] | – | 160 nM | -101% | –
3 | CCN(CCCc1ccccc1)CCCc1ccccc1 [Alverine citrate] | Inactive | 380 nM | -95% | –
4 | O=c1nc(-c2ccccn2)sc2ccccc12 [BTZO 1] | Inactive | – | – | BChE, % Efficacy [1]: 0.49 ± 0.25 (–94.6 ± 2.01) %; IC50 ([1]; read-out: BChE, IC50): 490 nM
5 | CN(C)C(=O)Oc1cc(OC(=O)N(C)C)cc(C(O)CNC(C)(C)C)c1 (stereo not shown) [Bambuterol hydrochloride] | Inactive | 30 nM | -91.4% | –
6 | N#CC(c1ccnc(OCc2ccc(CN3CCOCC3)cc2)n1)c1nc2ccccc2s1 (stereo not shown) [Bentamapimod] | Inactive | 330 nM | -98.8% | AChE inhibition [2]: did not show AChE inhibition
7 | COc1ccc(CN(C(=O)[C@@H](N)Cc2c(C)cc(C(N)=O)cc2C)[C@@H](C)c2ncc(-c3ccccc3)[nH]2)cc1C(=O)O [Eluxadoline] | Inactive | 340 nM | -100% | –
8 | O=C(CN1CCN(Cc2ccc3c(c2)OCO3)CC1)N1c2ccccc2Sc2ccccc21 [Fenoverine] | Inactive | 90 nM | -97.3% | AChE inhibition [2]: did not show AChE inhibition
9 | Cc1c(Cl)c(=O)oc2cc(OP(=O)(OCCCl)OCCCl)ccc12 [Haloxon] | – | 30 nM | -91.2% | IC50 [2]: 320 nM; Emax [2]: -101%
10 | Clc1ccc(Nc2nc3ccccc3c3nc(C4CCCCC4)[nH]c23)cc1Cl [LUF6000] | – | – | – | inhibition against BChE in the fluorescent assay [3]: did not show inhibition
11 | Cc1c[nH]c2ncnc(N3CCC(CN)(C(=O)Nc4cccc(OC(=O)N(C)C)c4)CC3)c12 [LX-7101] | – | 220 nM | -96.6% | IC50 [2]: 7710 nM; Emax [2]: -92.4%
12 | CCCCn1c(-c2ccccc2)nc(-c2ccccc2)c1CN(Cc1ccc2c(c1)OCO2)Cc1ccc2c(c1)OCO2 [NDT 9513727, N,N-Bis(1,3-benzodioxol-5-ylmethyl)-1-butyl-2,4-diphenyl-1H-imidazole-5-methanamine] | Inactive | 210 nM | -101% | AChE inhibition [2]: did not show AChE inhibition
13 | CN1CCc2cc(Cl)c(O)cc2[C@@H](c2cccc3c2OCC3)C1 [NNC 756] | Inactive | – | – | BChE, % Efficacy [1]: 0.84 ± 0.11 (–98.2 ± 6.31) %; IC50 ([1]; read-out: BChE, IC50): 840 nM
14 | CN(C)C(=O)Oc1cccc([N+](C)(C)C)c1 [Neostigmine bromide] | – | 900 nM | -102% | Emax [2]: -94.6%
15 | CCCCCCCCCCC[C@@H](C[C@@H]1OC(=O)[C@H]1CCCCCC)OC(=O)[C@H](CC(C)C)NC=O [Orlistat] | – | 120 nM | -92.9% | Emax [2]: -80.5%
16 | CNC(=O)Oc1ccc2c(c1)[C@]1(C)CCN(C)[C@@H]1N2C [Physostigmine] | – | – | -98.4% | Emax [2]: -103%
17 | CC(C)OC(=O)C1=CN(C(=O)c2ccc(F)c(F)c2)CC(C)(C)c2c1[nH]c1ccccc21 [Turofexorate isopropyl] | Inactive | 290 nM | -98.5% | AChE inhibition [2]: did not show AChE inhibition
18 | CCN(CC)C(C)CN1c2ccccc2Sc2ccccc21 (stereo not shown) [ethopropazine hydrochloride, Ethopropazine hydrochloride] | – | 1700 ± 530 nM | – | –
19 | Diethylumbelliferyl phosphate | – | – | – | AChE, % Efficacy [2]: 0.42 ± 0.03 (–98.6 ± 5.66) %
